According to the NIST ThermoML archive (doi:10.1016/j.jct.2013.09.039):

Experiment: xn = mol fraction of the nth substance listed
Conditions: Liquid, Vibrating tube method

Cc1ccc(C)cc1 [1,4-dimethylbenzene] + CCCCCCCC
mass density [kg/m3]
Conditions | 100 kPa | 5000 kPa | 10000 kPa | 20000 kPa | 30000 kPa | 40000 kPa
288.15 K, x2 = 0.0509 | 854.9 | 858.3 | 861.8 | 868.3 | 874.2 | 880
288.15 K, x2 = 0.0993 | 845.1 | 849 | 852.5 | 858.8 | 864.8 | 870.6
288.15 K, x2 = 0.1981 | 826.4 | 830.2 | 833.7 | 840.4 | 846.4 | 852.2
288.15 K, x2 = 0.2961 | 808.8 | 812.6 | 816.2 | 822.9 | 829 | 834.9
288.15 K, x2 = 0.3989 | 791.4 | 795.2 | 798.9 | 805.6 | 811.9 | 817.8
288.15 K, x2 = 0.4891 | 776.6 | 780.8 | 784.6 | 791.3 | 797.8 | 803.8
288.15 K, x2 = 0.5473 | 768.3 | 772 | 775.7 | 782.7 | 789.1 | 795.1
288.15 K, x2 = 0.6039 | 760.1 | 763.5 | 767.2 | 774.2 | 780.5 | 786.5
288.15 K, x2 = 0.8031 | 731.5 | 735.9 | 739.8 | 746.9 | 753.3 | 759.8
288.15 K, x2 = 0.8963 | 719.7 | 723.8 | 727.5 | 734.8 | 741.1 | 747.2
288.15 K, x2 = 0.946 | 712.7 | 716.7 | 720.8 | 727.6 | 734.2 | 740.3
298.15 K, x2 = 0.0509 | 846.1 | 850.4 | 853.4 | 860.3 | 866.3 | 872.5
298.15 K, x2 = 0.0993 | 836.5 | 840.8 | 844 | 850.7 | 857.1 | 863.1
298.15 K, x2 = 0.1981 | 817.9 | 822.3 | 825.5 | 832.4 | 838.9 | 844.9
298.15 K, x2 = 0.2961 | 800.2 | 804.6 | 808 | 815 | 821.5 | 827.5
298.15 K, x2 = 0.3989 | 782.9 | 787.4 | 790.9 | 798 | 804.5 | 810.7
298.15 K, x2 = 0.4891 | 768.7 | 773.3 | 776.6 | 784 | 790.7 | 796.8
298.15 K, x2 = 0.5473 | 760.7 | 764.4 | 768 | 775.2 | 781.9 | 787.9
298.15 K, x2 = 0.6039 | 752.1 | 755.9 | 759.5 | 766.8 | 773.3 | 779.4
298.15 K, x2 = 0.8031 | 723.7 | 728.5 | 732.1 | 739.3 | 746.2 | 752.5
298.15 K, x2 = 0.8963 | 712.2 | 716.5 | 720 | 727.3 | 734.1 | 740.5
298.15 K, x2 = 0.946 | 704.7 | 709.5 | 713.2 | 720.7 | 727.5 | 733.8
308.15 K, x2 = 0.0509 | 837.4 | 841.4 | 845.2 | 852.1 | 858.9 | 865
308.15 K, x2 = 0.0993 | 828 | 832 | 835.8 | 842.9 | 849.6 | 855.8
308.15 K, x2 = 0.1981 | 809.3 | 813.5 | 817.5 | 824.5 | 831.4 | 837.7
308.15 K, x2 = 0.2961 | 791.6 | 796 | 800 | 807.3 | 814.2 | 820.5
308.15 K, x2 = 0.3989 | 774.4 | 778.8 | 783 | 790.3 | 797.2 | 803.7
308.15 K, x2 = 0.4891 | 760.3 | 764.7 | 768.9 | 776.4 | 783.4 | 789.7
308.15 K, x2 = 0.5473 | 752.4 | 755.9 | 760.1 | 767.7 | 774.6 | 781.2
308.15 K, x2 = 0.6039 | 743.9 | 747.2 | 751.6 | 759.3 | 766.3 | 772.7
308.15 K, x2 = 0.8031 | 716.1 | 719.9 | 724.2 | 732.1 | 739.2 | 745.9
308.15 K, x2 = 0.8963 | 704.2 | 708.1 | 712.4 | 720.1 | 727.4 | 734
308.15 K, x2 = 0.946 | 697.5 | 701.3 | 705.5 | 713.4 | 720.7 | 727.3

CCOC(=O)OCC [diethyl carbonate] + Cc1ccc(C)cc1
mass density [kg/m3]
Conditions | 100 kPa | 5000 kPa | 10000 kPa | 20000 kPa | 30000 kPa | 40000 kPa
288.15 K, x1 = 0.1014 | 876.7 | 880.1 | 883.7 | 890.3 | 896.1 | 902.1
288.15 K, x1 = 0.1346 | 879.5 | 884.1 | 887.8 | 894.3 | 900.3 | 906.3
288.15 K, x1 = 0.1949 | 887.5 | 891.2 | 894.8 | 901.3 | 907.5 | 913.4
288.15 K, x1 = 0.2767 | 898.3 | 900.9 | 904.5 | 911.3 | 917.4 | 923.5
288.15 K, x1 = 0.386 | 909.2 | 913.4 | 917.2 | 924.1 | 930.4 | 936.6
288.15 K, x1 = 0.4858 | 920.7 | 924.7 | 928.5 | 935.5 | 941.9 | 948.3
288.15 K, x1 = 0.5444 | 928.4 | 931.5 | 935.3 | 942.5 | 949.1 | 955.4
288.15 K, x1 = 0.5923 | 933.9 | 937 | 941 | 948 | 954.7 | 961.2
288.15 K, x1 = 0.6718 | 942.3 | 946.4 | 950.3 | 957.5 | 964.3 | 970.9
288.15 K, x1 = 0.7676 | 953.2 | 957.4 | 961.3 | 968.7 | 975.6 | 982.3
288.15 K, x1 = 0.8313 | 960.6 | 964.8 | 968.9 | 976.4 | 983.3 | 990.1
288.15 K, x1 = 0.9044 | 968.7 | 973.1 | 977.2 | 984.7 | 991.9 | 998.6
298.15 K, x1 = 0.1014 | 867.6 | 871.9 | 875.1 | 882 | 888.2 | 894.3
298.15 K, x1 = 0.1346 | 871.5 | 875.8 | 879 | 885.9 | 892.3 | 898.4
298.15 K, x1 = 0.1949 | 878.1 | 882.4 | 885.8 | 892.7 | 899.3 | 905.3
298.15 K, x1 = 0.2767 | 887.5 | 892 | 895.4 | 902.5 | 909.1 | 915.3
298.15 K, x1 = 0.386 | 899.8 | 904.4 | 907.7 | 915 | 921.9 | 928.2
298.15 K, x1 = 0.4858 | 910.7 | 915.2 | 918.8 | 926.3 | 933.2 | 939.6
298.15 K, x1 = 0.5444 | 916.8 | 922 | 925.6 | 933.2 | 940.2 | 946.6
298.15 K, x1 = 0.5923 | 922.8 | 927.4 | 931.1 | 938.5 | 945.8 | 952.3
298.15 K, x1 = 0.6718 | 931.7 | 936.5 | 940.3 | 947.8 | 955.1 | 961.8
298.15 K, x1 = 0.7676 | 942.4 | 947.3 | 951 | 959 | 966.3 | 973.1
298.15 K, x1 = 0.8313 | 949.8 | 954.7 | 958.4 | 966.4 | 973.8 | 980.8
298.15 K, x1 = 0.9044 | 957.6 | 962.7 | 966.6 | 974.7 | 982.2 | 989.1
308.15 K, x1 = 0.1014 | 858.7 | 862.8 | 866.6 | 873.8 | 880.4 | 886.6
308.15 K, x1 = 0.1346 | 862.5 | 866.7 | 870.4 | 877.7 | 884.5 | 890.8
308.15 K, x1 = 0.1949 | 868.9 | 873 | 876.5 | 884.2 | 891.1 | 897.5
308.15 K, x1 = 0.2767 | 878.2 | 882.4 | 886.5 | 893.8 | 900.8 | 907.3
308.15 K, x1 = 0.386 | 890.1 | 894.5 | 898.5 | 906.2 | 913.3 | 919.9
308.15 K, x1 = 0.4858 | 900.7 | 905.2 | 909.2 | 917.2 | 924.5 | 931.2
308.15 K, x1 = 0.5444 | 907.2 | 911.7 | 916 | 923.9 | 931.3 | 938.1
308.15 K, x1 = 0.5923 | 912.6 | 916.9 | 921.4 | 929.4 | 936.8 | 943.7
308.15 K, x1 = 0.6718 | 921.3 | 925.7 | 930.3 | 938.4 | 945.9 | 952.9
308.15 K, x1 = 0.7676 | 931.8 | 936.5 | 940.9 | 949.2 | 957 | 964.1
308.15 K, x1 = 0.8313 | 939 | 943.6 | 948.1 | 956.6 | 964.2 | 971.6
308.15 K, x1 = 0.9044 | 946.7 | 951.5 | 956.2 | 964.5 | 972.6 | 979.9
